Data on one substance can be found in US11851381B2, “Application of farnesene in preparing plant-derived urease inhibitor” (priority 2022, dated 2023).

One assay relates to corns. In words: Pot experiment: combined application of farnesene and urea on growth of corns. It is filed as in vivo, corn. The settings on record: potted corns; for Increase of dry weight / Yield increase: versus control without farnesene. An excerpt:
Soil required for pot experiment is brown soil collected from Shenyang. 13 g of nitrogen phosphorus potassium fertilizer is used as base fertilizer to be applied in all layers according to a ratio of 26-10-12; and the fertilizer with farnescene and the fertilizer without farnescene are used as control, and the application amount is 0.5%, 1% and 5% of a pure nitrogen content in the fertilizer. Nitrogen fertilizer for test is urea, phosphorus fertilizer is calcium superphosphate, and potassium fertilizer is potassium sulfate. Each treatment is repeated for 5 times. The pretreated soil (filtered by a 5 mm sieve to remove stone pieces, roots, etc.) that is equivalent to 16 kg of air-dried oil is laid on square thick plastic paper with an edge length of 2 m, then the required fertilizer and inhibitor (if necessary) that are uniformly mixed in advance are applied uniformly to the soil, the paper is folded for multiple times by a diagonal folding method, in this period, it is necessary to lay the soil on the paper and then fold the paper, finally the soil is sufficiently and uniformly mixed with the fertilizer and inhibitor, the obtained mixture is transferred into a plastic pot (with a diameter of 28 cm and a height of 34 cm), and finally irrigation is carried out to make the water content of the soil reach 60% of the maximal field water holding capacity. Finally, a height about 5 cm is reserved between the soil surface and the top end of the pot. Three corn seeds are sowed in each pot in a sowing depth of 5 cm, and after the emergence (about 15 days), thinning is carried out to make each pot have one corn. Finally, all potted corns are carried onto a four-wheeled platform lorry and finally transferred into a net house. When in rainy days, the potted corns are transferred into a shed. The corns are watered manually every day in a growth period so as to maintain the soil moisture. The planting density is about 4000 corns per Mu, and a dry weight and yield of the corn are determined in autumn.

The subject of assay [1] is soil urease-generating bacteria. In words: Inhibition of soil urease-generating bacteria (bacterial ureC gene copy number by quantitative PCR). The note with it: urea 200 mg N kg^-1 dry soil, farnesene 0.5%, 2% of pure nitrogen. Here is the method:
(1) Pre-culture of soil: air-dried soil (brown soil) is filtered by a 2 mm sieve and then placed in a culture dish, distilled water accounting for 15% of the weight of the dried soil is added, after the dried soil is uniformly and thoroughly immersed with water, the soil is pre-cultured for 2 weeks in a constant temperature incubator at 25° C. to restore the biological activity of the soil, and ventilation and constant moisture are kept in the pre-culture period, thereby obtaining the pre-cultured soil.
(2) The pre-cultured soil is weighed; urea is added according to a concentration of 200 mg N kg^−1 of dry soil; the farnesene is added according to concentrations of pure nitrogen of 0 (U), 0.5% (U+0.5%), 1% (U+1%) and 2% (U+2%); and at the same time, the pre-cultured soil without urea and farnescene is used as control treatment, and 5 treatments are carried out and repeated for 4 times. In each treatment, the required urea and farnesene are dissolved in a certain amount of deionized water according to a required amount, then the solution is uniformly mixed with the pre-cultured soil that is equivalent to 50 g of air-dried soil by a vacuum method, the water content of the soil is enabled to reach 60% of the field water holding capacity (WHC), and finally the solution is placed in a 150 mL centrifugal pipe with a cover. […]

Another assay deals with soil urease. In words: Inhibition of soil urease activity in incubated brown soil. It is filed as biochemical. Here is the method: (1) Pre-culture of soil: air-dried soil (brown soil) is filtered by a 2 mm sieve and then placed in a culture dish, distilled water accounting for 15% of the weight of the dried soil is added, after the dried soil is uniformly and thoroughly immersed with water, the soil is pre-cultured for 2 weeks in a constant temperature incubator at a constant temperature of 25° C. to restore the biological activity of the soil, and ventilation and constant moisture are kept in the pre-culture period.
(2) The pre-cultured soil is weighed, and added with DMSO solutions of farnesene and acetohydroxamic acid respectively, the concentrations of the farnesene and acetohydroxamic acid are 50 mg/kg (calculated by the dried soil) respectively, and a farnesene-soil mixture and an acetohydroxamic acid-soil mixture are obtained. 5 g of farnesece-soil mixture and 5 g of acetohydroxamic acid-soil mixture are weighed respectively and placed into glass test tubes (length 15 cm×diameter 15 mm), then 5 mL of distilled water is added respectively into the test tubes to make the soil located below a liquid surface, the mixtures in the test tubes are shaken by a vortex shaker and uniformly mixed; and at the same time, the pre-cultured soil without the inhibitor is used as control treatment (CK) and cultured in the constant temperature incubator at a constant temperature of 25° C., and sampling is carried out respectively on the 1st day, the 7th day, 14th day and 28th day after the culture (water is supplemented every day according to a weight method so as to keep a total weight of the test tube constant) for determination of urease activity. […]

Assay [2] addresses T1, Canavalia ensiformis urease (Canavalia ensiformis, UniProt P07374).
T1 construct: purchased Aladdin Company
The assay is classed as biochemical. The settings on record: incubated 20 min at 37° C., HEPES pH 7.5; unit inferred; read-out: median inhibitory concentration (IC50) for inhibiting the activity of Canavalia ensiformis urease.
Method: Acetohydroxamic acid is weighed, and mixed with 20 mM of HEPES buffer solution (with pH of 7.5) to prepare an acetohydroxamic acid solution of 0.1 μM, 0.5 μM, 1 μM, 3 μM, 5 μM, 10 μM, 20 μM, 40 μM, 60 μM and 80 μM, and the solution is cold stored in a brown bottle in a refrigerator at 4° C. for standby use;
Canavalia ensiformis urease is weighed, and dissolved in 20 mM of HEPES buffer solution (with pH of 7.5) to prepare the Canavalia ensiformis urease solution with a concentration of 10 U/mL, and the prepared solution is cold stored in the refrigerator at 4° C. for standby use. […]
A. 50 μL of the above prepared farnesene solution with different concentrations is collected, added with 100 μL of Canavalia ensiformis urease solution respectively, and uniformly mixed to obtain mixed solutions, and the mixed solutions are incubated for 20 min at 37° C.; 100 μL of urea solution is added for light avoidance reaction for 20 min at a room temperature; the Berthelot developing solution A is added and uniformly mixed, and the Berthelot developing solution B is added for development for 10 min to obtain an incubation solution; and 250 μL of incubation solution is absorbed onto a 96-well plate, an OD absolute value at 595 nm is determined by a microplate reader, and three times of test are carried in parallel for each concentration. […]

Where [3] appears, read: farnesene 0.5% of pure nitrogen content in the fertilizer.
Setting [4] is: farnesene 0.5% of pure nitrogen content.
[5] abbreviates: farnesene 1% of pure nitrogen content in the fertilizer.
Setting [6] is: farnesene 1% of pure nitrogen content.
Where [7] appears, read: farnesene 5% of pure nitrogen content in the fertilizer.
[8] abbreviates: farnesene 5% of pure nitrogen content.

T1 sequence (P07374 whole entry, looked up): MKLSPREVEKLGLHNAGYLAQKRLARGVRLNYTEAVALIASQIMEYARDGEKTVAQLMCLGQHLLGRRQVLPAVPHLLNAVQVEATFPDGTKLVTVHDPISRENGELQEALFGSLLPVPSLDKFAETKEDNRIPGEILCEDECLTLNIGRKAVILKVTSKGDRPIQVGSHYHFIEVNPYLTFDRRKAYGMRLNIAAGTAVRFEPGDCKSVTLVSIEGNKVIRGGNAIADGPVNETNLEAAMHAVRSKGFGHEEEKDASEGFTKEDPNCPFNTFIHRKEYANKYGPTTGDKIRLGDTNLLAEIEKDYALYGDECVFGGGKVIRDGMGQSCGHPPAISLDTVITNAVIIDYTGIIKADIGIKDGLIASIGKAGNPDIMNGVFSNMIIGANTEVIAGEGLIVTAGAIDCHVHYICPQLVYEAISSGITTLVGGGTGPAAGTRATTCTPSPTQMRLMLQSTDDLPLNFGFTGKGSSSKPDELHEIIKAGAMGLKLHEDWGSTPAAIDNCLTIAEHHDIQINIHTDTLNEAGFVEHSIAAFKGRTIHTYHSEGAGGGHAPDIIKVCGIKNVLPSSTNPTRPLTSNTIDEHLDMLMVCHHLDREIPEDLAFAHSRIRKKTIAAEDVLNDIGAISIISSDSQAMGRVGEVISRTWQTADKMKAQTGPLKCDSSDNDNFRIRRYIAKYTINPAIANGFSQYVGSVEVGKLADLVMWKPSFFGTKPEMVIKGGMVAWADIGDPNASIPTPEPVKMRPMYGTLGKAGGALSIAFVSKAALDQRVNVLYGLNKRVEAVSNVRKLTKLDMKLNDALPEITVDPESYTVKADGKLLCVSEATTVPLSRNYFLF

farnesene: the Dry weight in the assay on corns (setting [3]) was 16006.3 kg ha^−1; with corns (setting [5]), 16922.8 kg ha^−1; in the assay on corns (setting [7]), 17371.5 kg ha^−1. In addition, the Yield in the assay with corns (setting [3]) turned out to be 8004.2 kg ha^−1; in the assay with corns (setting [5]) it was 8521.3 kg ha^−1; with corns (setting [7]), 8714.3 kg ha^−1. Besides, the “Increase of dry weight” value in the assay with corns (setting [4]) is 4.1%; with corns (setting [6]), 8.6%; in the assay on corns (setting [8]), 10.2%. Further, the Yield increase in the assay on corns (setting [4]) is listed as 4.5%; in the assay with corns (setting [6]), 10.1%; in the assay on corns (setting [8]) it was 12.2%. In addition, in assay [1], the “duration of the inhibition effect on urease-generating bacteria” value is recorded as 14 days. Moreover, in assay [1] (25° C.), the “inhibition of the proliferation of urease-generating bacteria (copy number of bacterial ureC genes)” value is reported as “can effectively inhibit the proliferation of the urease-generating bacteria”. Also, the “duration of the inhibition effect on soil urease” value in the assay with soil urease (50 mg/kg dried soil, brown soil, 25° C.) is on record as 14 days. Also, the “inhibition of the activity of soil urease” value in the assay with soil urease (50 mg/kg dried soil, brown soil, 25° C., sampled day 1, 7, 14, 28) was “can effectively inhibit the activity of soil urease”. Also, the “inhibition effect on soil urease compared with acetohydroxamic acid” value in the assay with soil urease (both at 50 mg/kg dried soil) is on record as “equivalent to that of the commercial inhibitor acetohydroxamic acid”. The IC50 in assay [2] turned out to be 10.3 ± 0.25 µM.
